Results published in US20200017496A1 (priority 2017, published 2020).
Read-outs that look alike come from different tables or passages of the source.

Legend:
Format in all cases: cell-based
[1] = tested on: Proteus mirabilis (PMI) isolates; test: microbe, parasite or virus in culture; details: for MIC: Proteus mirabilis, ATB alone, read-out: MIC
Method: (§1) Method 2: MIC of Compounds Alone and Combined with Antibacterials Against Bacterial Isolates.
(§2) Compounds of the present invention were assessed against genotyped bacterial strains (Table 3, 4) alone or in combination with an antibacterial (Table 2). […] Log phase bacterial suspensions were adjusted to a final density of 5·10^5 CFU/mL in cation-adjusted Mueller-Hinton broth (ca-MHB; Becton-Dickinson and Company) and added to each well (98 μL). Microplates were incubated for 16-20 h at 35° C. in ambient air. The MIC of the compounds was defined as the lowest concentration of said compounds that prevented bacterial growth as read by visual inspection. The MIC of ATB at each compound concentration was defined as the lowest concentration of ATB that prevented bacterial growth as read by visual inspection.

[2] = tested on: Salmonella typhimurium (STY) isolates; test: MIC of compounds alone and combined with antibacterials, broth microdilution (CLSI)
Method: as §1, §2

[3] = tested on: Escherichia coli (ECO) isolates; test: as above
Method: as §1, §2

CC(C)(O/N=C(\C(=O)N[C@@H]1C(=O)N2C(C(=O)[O-])=C(C[n+]3ccccc3)CS[C@H]12)c1csc(N)n1)C(=O)O [CAZ, Ceftazidime]
<=0.25 μg/mL: MIC ATB in combination ([1]; PMI UFR82, AF1 @ 4 μg/mL) | MIC ATB in combination ([1]; PMI UFR82, AF1 @ 8 μg/mL) | MIC ATB in combination ([1]; PMI UFR120, AF1 @ 4 μg/mL) | MIC ATB in combination ([1]; PMI UFR120, AF1 @ 8 μg/mL) | MIC ATB in combination ([1]; PMI UFR121, AF1 @ 4 μg/mL) | MIC ATB in combination ([1]; PMI UFR121, AF1 @ 8 μg/mL) | MIC ATB in combination ([1]; PMI UFR122, AF1 @ 4 μg/mL) | MIC ATB in combination ([1]; PMI UFR122, AF1 @ 8 μg/mL) | MIC ATB in combination ([1]; PMI UFR123, AF1 @ 4 μg/mL) | MIC ATB in combination ([1]; PMI UFR123, AF1 @ 8 μg/mL) | MIC ATB in combination ([1]; PMI UFR124, AF1 @ 4 μg/mL) | MIC ATB in combination ([1]; PMI UFR124, AF1 @ 8 μg/mL) | MIC ATB in combination ([1]; PMI UFR125, AF1 @ 4 μg/mL) | MIC ATB in combination ([1]; PMI UFR125, AF1 @ 8 μg/mL) | MIC ATB in combination ([1]; PMI UFR126, AF1 @ 4 μg/mL) | MIC ATB in combination ([1]; PMI UFR126, AF1 @ 8 μg/mL) | MIC ATB in combination ([1]; PMI UFR127, AF1 @ 4 μg/mL) | MIC ATB in combination ([1]; PMI UFR127, AF1 @ 8 μg/mL) | MIC ATB in combination ([1]; PMI UFR129, AF1 @ 4 μg/mL) | MIC ATB in combination ([1]; PMI UFR129, AF1 @ 8 μg/mL) | MIC ATB in combination ([1]; PMI UFR130, AF1 @ 4 μg/mL) | MIC ATB in combination ([1]; PMI UFR130, AF1 @ 8 μg/mL) | MIC ATB in combination ([1]; PMI UFR237, AF1 @ 8 μg/mL) | MIC ATB in combination [2] | MIC ATB in combination ([3]; ECO 4133, AF1 @ 4 μg/mL) | MIC ATB in combination ([3]; ECO 4133, AF1 @ 8 μg/mL) | MIC ATB in combination ([3]; ECO 5302, AF1 @ 4 μg/mL) | MIC ATB in combination ([3]; ECO 5302, AF1 @ 8 μg/mL) | MIC ATB in combination ([3]; ECO 131119, AF1 @ 4 μg/mL) | MIC ATB in combination ([3]; ECO 131119, AF1 @ 8 μg/mL) | MIC ATB in combination ([3]; ECO 180070, AF1 @ 4 μg/mL) | MIC ATB in combination ([3]; ECO 180070, AF1 @ 8 μg/mL) | MIC ATB in combination ([3]; ECO 190314, AF1 @ 8 μg/mL) | MIC ATB in combination ([3]; ECO 190317, AF1 @ 8 μg/mL) | MIC ATB in combination ([3]; ECO 190457, AF1 @ 4 μg/mL) | MIC ATB in combination ([3]; ECO 190457, AF1 @ 8 μg/mL) | MIC ATB in combination ([3]; ECO 190549, AF1 @ 4 μg/mL) | MIC ATB in combination ([3]; ECO 190549, AF1 @ 8 μg/mL) | MIC ATB in combination ([3]; ECO 200159, AF1 @ 4 μg/mL) | MIC ATB in combination ([3]; ECO 200159, AF1 @ 8 μg/mL) | MIC ATB in combination ([3]; ECO 200259, AF1 @ 4 μg/mL) | MIC ATB in combination ([3]; ECO 200259, AF1 @ 8 μg/mL) | MIC ATB in combination ([3]; ECO 200344, AF1 @ 4 μg/mL) | MIC ATB in combination ([3]; ECO 200344, AF1 @ 8 μg/mL) | MIC ATB in combination ([3]; ECO 260096, AF1 @ 4 μg/mL) | MIC ATB in combination ([3]; ECO 260096, AF1 @ 8 μg/mL) | MIC ATB in combination ([3]; ECO 260304, AF1 @ 4 μg/mL) | MIC ATB in combination ([3]; ECO 260304, AF1 @ 8 μg/mL) | MIC ATB in combination ([3]; ECO 260508, AF1 @ 4 μg/mL) | MIC ATB in combination ([3]; ECO 260508, AF1 @ 8 μg/mL) | MIC ATB in combination ([3]; ECO RGN238, AF1 @ 4 μg/mL) | MIC ATB in combination ([3]; ECO RGN238, AF1 @ 8 μg/mL) | MIC ATB in combination ([3]; ECO UFR15, AF1 @ 4 μg/mL) | MIC ATB in combination ([3]; ECO UFR15, AF1 @ 8 μg/mL) | MIC ATB in combination ([3]; ECO UFR16, AF1 @ 4 μg/mL) | MIC ATB in combination ([3]; ECO UFR16, AF1 @ 8 μg/mL) | MIC ATB in combination ([3]; ECO UFR18, AF1 @ 8 μg/mL) | MIC ATB in combination ([3]; ECO UFR19, AF1 @ 8 μg/mL) | MIC ATB in combination ([3]; ECO UFR62, AF1 @ 4 μg/mL) | MIC ATB in combination ([3]; ECO UFR62, AF1 @ 8 μg/mL) | MIC ATB in combination ([3]; ECO UFR74, AF1 @ 8 μg/mL) | MIC ATB in combination ([3]; ECO UFR86, AF1 @ 8 μg/mL) | MIC ATB in combination ([3]; ECO UFR174, AF1 @ 4 μg/mL) | MIC ATB in combination ([3]; ECO UFR175, AF1 @ 8 μg/mL) | MIC ATB in combination ([3]; ECO UFR176, AF1 @ 8 μg/mL) | MIC ATB in combination ([3]; ECO UFR184, AF1 @ 8 μg/mL) | MIC ATB in combination ([3]; ECO UFR186, AF1 @ 4 μg/mL) | MIC ATB in combination ([3]; ECO UFR186, AF1 @ 8 μg/mL)
<0.25 µg/mL: MIC ATB in combination ([3]; ECO UFR174, AF1 @ 8 μg/mL) | MIC ATB in combination ([3]; ECO UFR185, AF1 @ 8 μg/mL)
16 µg/mL: MIC ([1]; strain PMI UFR121 (TEM-1, TEM-52)) | MIC ATB in combination ([3]; ECO UFR17, AF1 @ 4 μg/mL)
4 µg/mL: MIC ([1]; strain PMI UFR82 (CMY-2)) | MIC ([1]; strain PMI UFR130 (CMY-2))
0.5 µg/mL: MIC ATB in combination ([1]; PMI UFR237, AF1 @ 4 μg/mL) | MIC ATB in combination ([3]; ECO 190314, AF1 @ 4 μg/mL) | MIC ATB in combination ([3]; ECO UFR61O, AF1 @ 8 μg/mL)
2 µg/mL: MIC ([1]; strain PMI UFR123 (CTX-M-1)) | MIC ([1]; strain PMI UFR124 (CTX-M-2)) | MIC ([1]; strain PMI UFR125 (CTX-M-71)) | MIC ATB in combination ([3]; ECO UFR17, AF1 @ 8 μg/mL) | MIC ATB in combination ([3]; ECO UFR61O, AF1 @ 4 μg/mL) | MIC ATB in combination ([3]; ECO UFR175, AF1 @ 4 μg/mL) | MIC ATB in combination ([3]; ECO UFR176, AF1 @ 4 μg/mL) | MIC ATB in combination ([3]; ECO UFR185, AF1 @ 4 μg/mL)
1 µg/mL: MIC ([1]; strain PMI UFR122 (TEM-1, CTX-M-15)) | MIC ATB in combination ([3]; ECO UFR18, AF1 @ 4 μg/mL) | MIC ATB in combination ([3]; ECO UFR19, AF1 @ 4 μg/mL) | MIC ATB in combination ([3]; ECO UFR20, AF1 @ 4 μg/mL) | MIC ATB in combination ([3]; ECO UFR20, AF1 @ 8 μg/mL) | MIC ATB in combination ([3]; ECO UFR74, AF1 @ 4 μg/mL) | MIC ATB in combination ([3]; ECO UFR86, AF1 @ 4 μg/mL) | MIC ATB in combination ([3]; ECO UFR184, AF1 @ 4 μg/mL) | MIC ATB in combination ([3]; ECO UFR187, AF1 @ 4 μg/mL)
≤ 0.25 µg/mL: MIC ([1]; strain PMI UFR120 (TEM-1, SHV-11, CTX-M-14))
